Experimental data as given in ChEMBL document CHEMBL5465560, “Selectivity Literature for EUbOPEN Chemogenomic Library” (2024).
One block for each compound: values may come before it.

Tests used:
[1] = target: Protein-tyrosine kinase 2-beta (Homo sapiens) (UniProt Q14289); conditions: at 10 µM
[2] = target: Cysteinyl leukotriene receptor 1 (Homo sapiens) (UniProt Q9Y271); assay: Selectivity interaction (Eurofins CEREP Diversity Profile (receptors and ion channels)) EUB0000279b CYSLTR1; conditions: at 10 µM
Sequence of Cysteinyl leukotriene receptor 1 (Homo sapiens) (Q9Y271 whole entry): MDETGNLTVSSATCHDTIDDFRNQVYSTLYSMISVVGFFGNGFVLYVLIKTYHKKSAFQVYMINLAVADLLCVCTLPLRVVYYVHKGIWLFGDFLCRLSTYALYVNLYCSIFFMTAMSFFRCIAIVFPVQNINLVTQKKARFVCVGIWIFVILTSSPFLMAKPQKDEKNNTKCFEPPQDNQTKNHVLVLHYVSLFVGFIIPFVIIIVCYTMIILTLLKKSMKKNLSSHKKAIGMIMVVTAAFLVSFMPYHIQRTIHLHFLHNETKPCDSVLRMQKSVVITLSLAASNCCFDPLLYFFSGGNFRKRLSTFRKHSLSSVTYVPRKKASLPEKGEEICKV

Misshapen-like kinase 1 = Misshapen-like kinase 1 (Homo sapiens, UniProt Q8N4C8); assay: Selectivity interaction (Enzymatic assay) EUB0001199aCl MINK1
Sequence of Misshapen-like kinase 1 (Q8N4C8 whole entry): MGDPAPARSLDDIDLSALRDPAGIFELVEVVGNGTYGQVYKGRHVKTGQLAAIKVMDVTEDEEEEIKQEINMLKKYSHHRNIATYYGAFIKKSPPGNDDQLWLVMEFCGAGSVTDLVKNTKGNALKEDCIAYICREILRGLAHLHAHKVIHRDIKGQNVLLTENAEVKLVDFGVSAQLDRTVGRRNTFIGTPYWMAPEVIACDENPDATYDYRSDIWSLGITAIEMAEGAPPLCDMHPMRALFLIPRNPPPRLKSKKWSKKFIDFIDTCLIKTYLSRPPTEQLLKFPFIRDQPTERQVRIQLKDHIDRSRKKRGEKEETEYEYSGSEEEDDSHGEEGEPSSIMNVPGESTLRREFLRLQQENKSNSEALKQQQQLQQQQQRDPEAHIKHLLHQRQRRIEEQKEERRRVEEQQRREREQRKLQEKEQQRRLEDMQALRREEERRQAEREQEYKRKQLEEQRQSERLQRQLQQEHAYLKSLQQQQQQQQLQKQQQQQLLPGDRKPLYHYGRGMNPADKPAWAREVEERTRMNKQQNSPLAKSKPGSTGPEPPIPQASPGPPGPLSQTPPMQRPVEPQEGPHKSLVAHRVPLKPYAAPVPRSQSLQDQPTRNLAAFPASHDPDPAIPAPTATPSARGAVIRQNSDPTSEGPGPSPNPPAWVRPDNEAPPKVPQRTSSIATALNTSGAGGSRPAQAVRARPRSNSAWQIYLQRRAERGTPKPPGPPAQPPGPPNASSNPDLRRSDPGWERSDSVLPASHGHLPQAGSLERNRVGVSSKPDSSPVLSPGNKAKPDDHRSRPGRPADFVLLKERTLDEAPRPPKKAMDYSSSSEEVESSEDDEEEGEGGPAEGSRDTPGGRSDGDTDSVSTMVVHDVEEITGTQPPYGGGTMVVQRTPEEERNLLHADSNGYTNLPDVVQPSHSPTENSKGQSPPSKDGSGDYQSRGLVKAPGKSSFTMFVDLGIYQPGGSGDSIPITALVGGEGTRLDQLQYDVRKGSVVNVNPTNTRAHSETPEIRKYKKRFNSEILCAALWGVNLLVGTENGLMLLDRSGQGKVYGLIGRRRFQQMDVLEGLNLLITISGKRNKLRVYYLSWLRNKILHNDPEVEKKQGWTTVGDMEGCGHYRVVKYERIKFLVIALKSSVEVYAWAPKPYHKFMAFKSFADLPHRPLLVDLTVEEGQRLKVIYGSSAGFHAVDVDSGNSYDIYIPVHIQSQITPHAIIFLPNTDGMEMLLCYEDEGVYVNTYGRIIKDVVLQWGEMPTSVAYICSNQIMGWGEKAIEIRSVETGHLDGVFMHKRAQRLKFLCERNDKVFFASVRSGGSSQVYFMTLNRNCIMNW

[3] = target: STE20/SPS1-related proline-alanine-rich protein kinase (Homo sapiens) (UniProt Q9UEW8); assay: Selectivity interaction (KinomeScan (DiscoverX)) EUB0000655a STK39; conditions: at 10 µM
[4] = target: Calcium/calmodulin-dependent protein kinase type 1D (Homo sapiens) (UniProt Q8IU85); assay: Selectivity interaction (SelectScreen profiling (Invitrogen)) EUB0000607a CAMK1D; conditions: at 2 µM
Sequence of Calcium/calmodulin-dependent protein kinase type 1D (Homo sapiens) (Q8IU85 whole entry, looked up): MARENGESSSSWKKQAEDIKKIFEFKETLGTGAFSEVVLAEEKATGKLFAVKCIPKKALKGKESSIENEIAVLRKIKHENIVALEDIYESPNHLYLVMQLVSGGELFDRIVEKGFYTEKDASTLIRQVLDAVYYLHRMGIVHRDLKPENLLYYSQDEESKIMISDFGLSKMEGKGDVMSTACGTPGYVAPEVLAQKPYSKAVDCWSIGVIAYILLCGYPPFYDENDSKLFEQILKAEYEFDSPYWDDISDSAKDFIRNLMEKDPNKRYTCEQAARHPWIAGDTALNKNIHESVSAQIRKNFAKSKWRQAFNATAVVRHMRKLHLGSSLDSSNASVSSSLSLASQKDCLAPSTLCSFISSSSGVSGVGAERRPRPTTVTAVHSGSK

[5] = target: Serine/threonine-protein kinase PAK 1 (Homo sapiens) (UniProt Q13153); conditions: at 10 µM
Sequence of Serine/threonine-protein kinase PAK 1 (Homo sapiens) (Q13153 whole entry): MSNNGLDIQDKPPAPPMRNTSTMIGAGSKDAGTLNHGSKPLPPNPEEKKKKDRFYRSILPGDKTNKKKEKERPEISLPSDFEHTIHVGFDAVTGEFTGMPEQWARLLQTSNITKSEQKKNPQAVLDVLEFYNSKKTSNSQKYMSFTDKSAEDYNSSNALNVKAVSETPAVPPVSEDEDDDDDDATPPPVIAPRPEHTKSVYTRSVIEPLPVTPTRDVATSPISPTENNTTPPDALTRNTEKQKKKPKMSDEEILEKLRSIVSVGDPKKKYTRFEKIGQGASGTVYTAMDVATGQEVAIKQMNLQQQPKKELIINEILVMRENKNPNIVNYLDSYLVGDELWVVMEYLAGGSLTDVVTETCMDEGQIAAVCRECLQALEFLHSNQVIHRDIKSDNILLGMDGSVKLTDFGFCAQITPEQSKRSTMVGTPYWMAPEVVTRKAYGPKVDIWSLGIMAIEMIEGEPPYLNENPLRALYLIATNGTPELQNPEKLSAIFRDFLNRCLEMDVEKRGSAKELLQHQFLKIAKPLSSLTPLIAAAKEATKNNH

[6] = target: T1, Ephrin type-B receptor 2 (Homo sapiens) (UniProt P29323); conditions: at 10 µM
T1 sequence (whole entry): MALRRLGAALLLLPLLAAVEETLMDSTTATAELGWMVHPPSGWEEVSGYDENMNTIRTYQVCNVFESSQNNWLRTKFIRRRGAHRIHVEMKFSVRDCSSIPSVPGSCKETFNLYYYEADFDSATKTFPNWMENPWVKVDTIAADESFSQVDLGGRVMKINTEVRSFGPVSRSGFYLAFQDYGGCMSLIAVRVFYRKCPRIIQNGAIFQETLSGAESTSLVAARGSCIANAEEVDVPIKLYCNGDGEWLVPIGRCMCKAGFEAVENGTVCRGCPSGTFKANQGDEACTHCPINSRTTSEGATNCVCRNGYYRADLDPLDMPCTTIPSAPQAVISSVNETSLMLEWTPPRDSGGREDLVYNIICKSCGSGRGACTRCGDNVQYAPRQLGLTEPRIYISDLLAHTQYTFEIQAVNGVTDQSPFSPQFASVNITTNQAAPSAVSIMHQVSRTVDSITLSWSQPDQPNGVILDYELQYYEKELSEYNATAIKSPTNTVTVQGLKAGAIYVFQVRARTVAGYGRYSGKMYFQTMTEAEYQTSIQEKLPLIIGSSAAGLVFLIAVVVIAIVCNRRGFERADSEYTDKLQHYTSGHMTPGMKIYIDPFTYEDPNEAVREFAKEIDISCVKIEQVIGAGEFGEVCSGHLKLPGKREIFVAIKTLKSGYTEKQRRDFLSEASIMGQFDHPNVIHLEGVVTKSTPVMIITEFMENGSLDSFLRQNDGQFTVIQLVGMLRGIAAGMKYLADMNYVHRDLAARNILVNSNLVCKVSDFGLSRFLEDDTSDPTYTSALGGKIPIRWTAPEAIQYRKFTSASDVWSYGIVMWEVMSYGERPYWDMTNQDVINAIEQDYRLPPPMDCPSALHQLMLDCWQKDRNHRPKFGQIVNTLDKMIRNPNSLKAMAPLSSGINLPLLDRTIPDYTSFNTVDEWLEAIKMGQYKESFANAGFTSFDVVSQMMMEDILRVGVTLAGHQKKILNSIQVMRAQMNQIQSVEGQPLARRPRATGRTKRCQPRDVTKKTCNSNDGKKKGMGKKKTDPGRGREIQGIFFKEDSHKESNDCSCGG

[7] = target: T2, Serine/threonine-protein kinase TBK1 (Homo sapiens) (UniProt Q9UHD2); assay: Selectivity interaction (KinomeScan (DiscoverX)) EUB0000695a TBK1; conditions: at 100 nM
T2 sequence (whole entry): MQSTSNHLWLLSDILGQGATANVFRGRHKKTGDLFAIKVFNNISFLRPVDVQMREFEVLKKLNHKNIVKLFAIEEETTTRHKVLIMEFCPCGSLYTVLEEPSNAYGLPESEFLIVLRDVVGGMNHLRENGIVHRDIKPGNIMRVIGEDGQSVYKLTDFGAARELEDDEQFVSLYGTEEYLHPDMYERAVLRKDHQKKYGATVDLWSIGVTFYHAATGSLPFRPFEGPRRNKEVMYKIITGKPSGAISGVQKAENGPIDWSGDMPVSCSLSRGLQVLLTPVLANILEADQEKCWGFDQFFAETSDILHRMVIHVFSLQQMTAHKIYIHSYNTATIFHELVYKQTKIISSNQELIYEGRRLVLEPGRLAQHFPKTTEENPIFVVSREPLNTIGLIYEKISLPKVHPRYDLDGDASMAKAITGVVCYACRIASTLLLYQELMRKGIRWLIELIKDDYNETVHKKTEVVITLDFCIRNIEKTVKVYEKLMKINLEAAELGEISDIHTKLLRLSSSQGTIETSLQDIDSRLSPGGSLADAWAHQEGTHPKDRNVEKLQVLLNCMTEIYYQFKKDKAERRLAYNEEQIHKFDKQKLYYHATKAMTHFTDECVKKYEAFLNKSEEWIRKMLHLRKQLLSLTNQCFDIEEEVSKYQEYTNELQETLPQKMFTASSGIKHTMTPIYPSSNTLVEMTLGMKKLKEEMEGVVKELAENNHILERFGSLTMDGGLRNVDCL

Sequence of Protein-tyrosine kinase 2-beta (Homo sapiens) (Q14289 whole entry, looked up): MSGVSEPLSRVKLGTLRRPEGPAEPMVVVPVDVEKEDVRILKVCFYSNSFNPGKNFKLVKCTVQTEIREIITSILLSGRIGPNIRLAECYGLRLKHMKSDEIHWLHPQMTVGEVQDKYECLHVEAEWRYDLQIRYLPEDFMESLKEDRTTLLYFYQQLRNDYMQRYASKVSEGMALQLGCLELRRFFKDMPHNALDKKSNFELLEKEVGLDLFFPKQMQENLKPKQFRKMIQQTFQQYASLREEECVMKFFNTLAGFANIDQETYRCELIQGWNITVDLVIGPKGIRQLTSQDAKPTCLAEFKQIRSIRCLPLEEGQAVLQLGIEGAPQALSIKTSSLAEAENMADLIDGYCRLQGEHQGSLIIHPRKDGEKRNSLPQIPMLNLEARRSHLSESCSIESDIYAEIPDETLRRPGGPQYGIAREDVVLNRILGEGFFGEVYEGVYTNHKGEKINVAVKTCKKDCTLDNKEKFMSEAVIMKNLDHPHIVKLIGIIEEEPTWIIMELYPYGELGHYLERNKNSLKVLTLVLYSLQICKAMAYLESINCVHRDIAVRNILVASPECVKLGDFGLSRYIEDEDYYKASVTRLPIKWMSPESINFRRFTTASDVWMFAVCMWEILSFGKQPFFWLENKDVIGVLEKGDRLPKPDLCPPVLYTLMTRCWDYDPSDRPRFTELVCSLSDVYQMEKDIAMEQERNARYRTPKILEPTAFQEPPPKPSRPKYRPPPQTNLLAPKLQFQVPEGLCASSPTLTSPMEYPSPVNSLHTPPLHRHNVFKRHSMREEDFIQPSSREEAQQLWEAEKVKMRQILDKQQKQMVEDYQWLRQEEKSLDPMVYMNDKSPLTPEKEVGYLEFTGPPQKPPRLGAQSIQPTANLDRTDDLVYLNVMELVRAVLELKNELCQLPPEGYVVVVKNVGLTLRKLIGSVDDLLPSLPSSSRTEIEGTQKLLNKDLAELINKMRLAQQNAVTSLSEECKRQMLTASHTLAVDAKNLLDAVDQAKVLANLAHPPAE

% of control [1]: 100%
Compound: CCN(CC)CCCCNc1ncc2cc(-c3cc(OC)cc(OC)c3)c(NC(=O)NC(C)(C)C)nc2n1

% of control [2]: 103%
Compound: CC(=O)c1cc(-c2ccccc2OCC2CC2)c2ncccn12

IC50 (Misshapen-like kinase 1): 1570 nM
Compound: CN1Cc2nccc(-c3cn(C)nc3-c3ccc(F)cc3)c2C1=O

Compound: CN(C)CCOc1ccc(-c2nc(-c3ccncc3)c(-c3ccc4c(c3)CC/C4=N\O)[nH]2)cc1
% of control [3]: 100%

Compound: CNC(=O)Nc1ccc(-c2nc(N3CC4CCC(C3)O4)c3cnn(C4CCC5(CC4)OCCO5)c3n2)cc1
% of inhibition [4]: 0%

Compound: Cc1cc([C@@H](C)Nc2ccccc2C(=O)O)c2nc(N3CCOCC3)cc(=O)n2c1 [AZD-6482]
% of control [5]: 100% | % of control [6]: 100%

Compound: Cc1cc(F)c(C(=O)Nc2cccc(-c3nncn3C(C)C)n2)cc1-n1cnc(C2CC2)c1
% of control [7]: 90%
